According to patent US20230085307A1, “PYRIDAZINONE COMPOUND AND HERBICIDE” (NISSAN CHEMICAL CORPORATION, priority 2019, published 2023):

What was measured:
velvetleaf [1] = experiment: Test Example 5: herbicidal effect by foliage application, plastic box (Table 20, symbol M); assay type: in vivo, velvetleaf (Abutilon theophrasti); details: foliage application, 320 g/ha, three weeks after application
Method in brief: (§1)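 Foliar spray test: emulsion formulation diluted in water to a set application rate, sprayed onto 14-day-old plants raised in diluvial soil at 25° C to 30° C under glass. Both herbicidal effect and crop effect rated visually three weeks later.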

Italian ryegrass [2] = experiment: Test Example 4: herbicidal effect by soil treatment (Table 19, symbol K); assay type: in vivo, Italian ryegrass (Lolium multiflorum); details: amount of applied herbicide 320 g/ha
Method in brief: (§2)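 Herbicidal effect was rated 3 weeks after treatment, using the scoring criteria of an earlier test. The compound, formulated as an emulsion and diluted in water to a set herbicide amount, had been sprayed uniformly on soil over freshly sown seeds. Growth took place in a greenhouse at 25° C. to 30° C.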

chickweed [3] = experiment: Test Example 4: herbicidal effect by soil treatment (Table 19, symbol P); assay type: in vivo, common chickweed (Stellaria media); details: amount of applied herbicide 320 g/ha
Method in brief: as §2

lambsquarters [4] = experiment: Test Example 4: herbicidal effect by soil treatment (Table 19, symbol O); assay type: in vivo, lambsquarters (Chenopodium album); details: amount of applied herbicide 320 g/ha
Method in brief: as §2

wild oat [5] = experiment: Test Example 5: herbicidal effect by foliage application, plastic box (Table 20, symbol I); assay type: in vivo, wild oat (Avena fatua); details: foliage application, 320 g/ha, three weeks after application
Method in brief: as §1

blackgrass [6] = experiment: Test Example 5: herbicidal effect by foliage application, plastic box (Table 20, symbol J); assay type: in vivo, blackgrass (Alopecurus myosuroides); details: foliage application, 320 g/ha, three weeks after application
Method in brief: as §1

barnyard grass [7] = experiment: Test Example 3: herbicidal effect by foliage application, Wagner pot (Table 18, symbol H); assay type: in vivo, barnyard grass (Echinochloa crus-galli)
Method in brief: (§3)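 Plants were sown in alluvial soil held under 0.1–0.5 cm standing water and grown 14 days in a greenhouse at 25–30 °C. An emulsifiable formulation, water-diluted to the set dose, was then sprayed onto the foliage, and effects were scored three weeks later using previously defined criteria.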

lambsquarters [8] = experiment: Test Example 5: herbicidal effect by foliage application, plastic box (Table 20, symbol O); assay type: in vivo, lambsquarters (Chenopodium album); details: foliage application, 320 g/ha, three weeks after application
Method in brief: as §1

Italian ryegrass [9] = experiment: Test Example 5: herbicidal effect by foliage application, plastic box (Table 20, symbol K); assay type: in vivo, Italian ryegrass (Lolium multiflorum); details: foliage application, 320 g/ha, three weeks after application
Method in brief: as §1

wild oat [10] = experiment: Test Example 4: herbicidal effect by soil treatment (Table 19, symbol I); assay type: in vivo, wild oat (Avena fatua); details: amount of applied herbicide 320 g/ha
Method in brief: as §2

redroot pigweed [11] = experiment: Test Example 5: herbicidal effect by foliage application, plastic box (Table 20, symbol N); assay type: in vivo, redroot pigweed (Amaranthus retroflexus); details: foliage application, 320 g/ha, three weeks after application
Method in brief: as §1

Chinese sprangletop = experiment: Test Example 3: herbicidal effect by foliage application, Wagner pot (Table 18, symbol D); assay type: in vivo, chinese sprangletop (Leptochloa chinensis)
Method in brief: as §3

persian speedwell [12] = experiment: Test Example 4: herbicidal effect by soil treatment (Table 19, symbol R); assay type: in vivo, Persian speedwell (Veronica persica); details: amount of applied herbicide 320 g/ha
Method in brief: as §2

green foxtail [13] = experiment: Test Example 5: herbicidal effect by foliage application, plastic box (Table 20, symbol G); assay type: in vivo, green foxtail (Setaria viridis); details: foliage application, 320 g/ha, three weeks after application
Method in brief: as §1

windgrass [14] = experiment: Test Example 5: herbicidal effect by foliage application, plastic box (Table 20, symbol L); assay type: in vivo, windgrass (Apera spica-venti); details: foliage application, 320 g/ha, three weeks after application
Method in brief: as §1

southern crabgrass [15] = experiment: Test Example 4: herbicidal effect by soil treatment (Table 19, symbol F); assay type: in vivo, southern crabgrass (Digitaria ciliaris); details: amount of applied herbicide 320 g/ha
Method in brief: as §2

chickweed [16] = experiment: Test Example 5: herbicidal effect by foliage application, plastic box (Table 20, symbol P); assay type: in vivo, common chickweed (Stellaria media); details: foliage application, 320 g/ha, three weeks after application
Method in brief: as §1

rice flat sedge = experiment: Test Example 3: herbicidal effect by foliage application, Wagner pot (Table 18, symbol E); assay type: in vivo, rice flat sedge (Cyperus iria)
Method in brief: as §3

redroot pigweed [17] = experiment: Test Example 4: herbicidal effect by soil treatment (Table 19, symbol N); assay type: in vivo, redroot pigweed (Amaranthus retroflexus); details: amount of applied herbicide 320 g/ha
Method in brief: as §2

green foxtail [18] = experiment: Test Example 4: herbicidal effect by soil treatment (Table 19, symbol G); assay type: in vivo, green foxtail (Setaria viridis); details: amount of applied herbicide 320 g/ha
Method in brief: as §2

persian speedwell [19] = experiment: Test Example 5: herbicidal effect by foliage application, plastic box (Table 20, symbol R); assay type: in vivo, Persian speedwell (Veronica persica); details: foliage application, 320 g/ha, three weeks after application
Method in brief: as §1

windgrass [20] = experiment: Test Example 4: herbicidal effect by soil treatment (Table 19, symbol L); assay type: in vivo, windgrass (Apera spica-venti); details: amount of applied herbicide 320 g/ha
Method in brief: as §2

blackgrass [21] = experiment: Test Example 4: herbicidal effect by soil treatment (Table 19, symbol J); assay type: in vivo, blackgrass (Alopecurus myosuroides); details: amount of applied herbicide 320 g/ha
Method in brief: as §2

southern crabgrass [22] = experiment: Test Example 5: herbicidal effect by foliage application, plastic box (Table 20, symbol F); assay type: in vivo, southern crabgrass (Digitaria ciliaris); details: foliage application, 320 g/ha, three weeks after application
Method in brief: as §1

false cleavers = experiment: Test Example 4: herbicidal effect by soil treatment (Table 19, symbol Q); assay type: in vivo, false cleavers (Galium spurium); details: amount of applied herbicide 320 g/ha
Method in brief: as §2

velvetleaf [23] = experiment: Test Example 4: herbicidal effect by soil treatment (Table 19, symbol M); assay type: in vivo, velvetleaf (Abutilon theophrasti); details: amount of applied herbicide 320 g/ha
Method in brief: as §2

barnyard grass [24] = experiment: Test Example 4: herbicidal effect by soil treatment (Table 19, symbol H); assay type: in vivo, barnyard grass (Echinochloa crus-galli); details: amount of applied herbicide 320 g/ha
Method in brief: as §2

barnyard grass [25] = experiment: Test Example 5: herbicidal effect by foliage application, plastic box (Table 20, symbol H); assay type: in vivo, barnyard grass (Echinochloa crus-galli); details: foliage application, 320 g/ha, three weeks after application
Method in brief: as §1

[26] = amount of applied herbicide 320 g/ha

CC(=O)CSc1ccc(-c2sc3ccc(F)cc3c2-c2c(O)c(C)nn(C)c2=O)cc1 [2-424]
M: velvetleaf, herbicidal effect grade (velvetleaf [1]): 3 (Herbicidal rate of 40% or more and less than 70%)
herbicidal effect, K: Italian ryegrass (Italian ryegrass [2]): 0 (Herbicidal rate of 5% or less (almost no effect))
herbicidal effect, P: chickweed (chickweed [3]): 0 (Herbicidal rate of 5% or less (almost no effect))
herbicidal effect, O: lambsquarters (lambsquarters [4]): 3 (Herbicidal rate of 40% or more and less than 70%)
I: wild oat, herbicidal effect grade (wild oat [5]): 4 (Herbicidal rate of 70% or more and less than 90%)
J: blackgrass, herbicidal effect grade (blackgrass [6]): 3 (Herbicidal rate of 40% or more and less than 70%)
herbicidal effect on H: barnyard grass (barnyard grass [7]; [26]): 5 (Herbicidal rate of 90% or more (almost completely withered))
O: lambsquarters, herbicidal effect grade (lambsquarters [8]): 3 (Herbicidal rate of 40% or more and less than 70%)
K: Italian ryegrass, herbicidal effect grade (Italian ryegrass [9]): 1 (Herbicidal rate of 5% or more and less than 20%)
herbicidal effect, I: wild oat (wild oat [10]): 0 (Herbicidal rate of 5% or less (almost no effect))
N: redroot pigweed, herbicidal effect grade (redroot pigweed [11]): 5 (Herbicidal rate of 90% or more (almost completely withered))
herbicidal effect on D: Chinese sprangletop (Chinese sprangletop; [26]): 3 (Herbicidal rate of 40% or more and less than 70%)
herbicidal effect, R: persian speedwell (persian speedwell [12]): 0 (Herbicidal rate of 5% or less (almost no effect))
G: green foxtail, herbicidal effect grade (green foxtail [13]): 3 (Herbicidal rate of 40% or more and less than 70%)
L: windgrass, herbicidal effect grade (windgrass [14]): 4 (Herbicidal rate of 70% or more and less than 90%)
herbicidal effect, F: southern crabgrass (southern crabgrass [15]): 0 (Herbicidal rate of 5% or less (almost no effect))
P: chickweed, herbicidal effect grade (chickweed [16]): 5 (Herbicidal rate of 90% or more (almost completely withered))
herbicidal effect on E: rice flat sedge (rice flat sedge; [26]): 4 (Herbicidal rate of 70% or more and less than 90%)
herbicidal effect, N: redroot pigweed (redroot pigweed [17]): 4 (Herbicidal rate of 70% or more and less than 90%)
herbicidal effect, G: green foxtail (green foxtail [18]): 0 (Herbicidal rate of 5% or less (almost no effect))
R: persian speedwell, herbicidal effect grade (persian speedwell [19]): 4 (Herbicidal rate of 70% or more and less than 90%)
herbicidal effect, L: windgrass (windgrass [20]): 0 (Herbicidal rate of 5% or less (almost no effect))
herbicidal effect, J: blackgrass (blackgrass [21]): 0 (Herbicidal rate of 5% or less (almost no effect))
F: southern crabgrass, herbicidal effect grade (southern crabgrass [22]): 3 (Herbicidal rate of 40% or more and less than 70%)
herbicidal effect, Q: false cleavers (false cleavers): 0 (Herbicidal rate of 5% or less (almost no effect))
herbicidal effect, M: velvetleaf (velvetleaf [23]): 2 (Herbicidal rate of 20% or more and less than 40%)
herbicidal effect, H: barnyard grass (barnyard grass [24]): 0 (Herbicidal rate of 5% or less (almost no effect))
H: barnyard grass, herbicidal effect grade (barnyard grass [25]): 5 (Herbicidal rate of 90% or more (almost completely withered))

Cc1nn(C)c(=O)c(-c2c(-c3ccc(OC(F)(F)F)cc3)sc3cc(F)ccc23)c1O [3-143]
M: velvetleaf, herbicidal effect grade (velvetleaf [1]): 5 (Herbicidal rate of 90% or more (almost completely withered))
Herbicidal effect by soil treatment, K: Italian ryegrass (Italian ryegrass [2]): 0 (Herbicidal rate of 5% or less (almost no effect))
Herbicidal effect by soil treatment, P: chickweed (chickweed [3]): 0 (Herbicidal rate of 5% or less (almost no effect))
Herbicidal effect by soil treatment, O: lambsquarters (lambsquarters [4]): 4 (Herbicidal rate of 70% or more and less than 90%)
I: wild oat, herbicidal effect grade (wild oat [5]): 0 (Herbicidal rate of 5% or less (almost no effect))
J: blackgrass, herbicidal effect grade (blackgrass [6]): 5 (Herbicidal rate of 90% or more (almost completely withered))
herbicidal effect on barnyard grass (H) (barnyard grass [7]; 320 g/ha): 5 (Herbicidal rate of 90% or more (almost completely withered))
O: lambsquarters, herbicidal effect grade (lambsquarters [8]): 5 (Herbicidal rate of 90% or more (almost completely withered))
K: Italian ryegrass, herbicidal effect grade (Italian ryegrass [9]): 5 (Herbicidal rate of 90% or more (almost completely withered))
Herbicidal effect by soil treatment, I: wild oat (wild oat [10]): 0 (Herbicidal rate of 5% or less (almost no effect))
N: redroot pigweed, herbicidal effect grade (redroot pigweed [11]): 5 (Herbicidal rate of 90% or more (almost completely withered))
herbicidal effect on Chinese sprangletop (D) (Chinese sprangletop; 320 g/ha): 4 (Herbicidal rate of 70% or more and less than 90%)
Herbicidal effect by soil treatment, R: persian speedwell (persian speedwell [12]): 3 (Herbicidal rate of 40% or more and less than 70%)
G: green foxtail, herbicidal effect grade (green foxtail [13]): 4 (Herbicidal rate of 70% or more and less than 90%)
L: windgrass, herbicidal effect grade (windgrass [14]): 5 (Herbicidal rate of 90% or more (almost completely withered))
Herbicidal effect by soil treatment, F: southern crabgrass (southern crabgrass [15]): 0 (Herbicidal rate of 5% or less (almost no effect))
P: chickweed, herbicidal effect grade (chickweed [16]): 5 (Herbicidal rate of 90% or more (almost completely withered))
herbicidal effect on rice flat sedge (E) (rice flat sedge; 320 g/ha): 5 (Herbicidal rate of 90% or more (almost completely withered))
Herbicidal effect by soil treatment, N: redroot pigweed (redroot pigweed [17]): 4 (Herbicidal rate of 70% or more and less than 90%)
Herbicidal effect by soil treatment, G: green foxtail (green foxtail [18]): 2 (Herbicidal rate of 20% or more and less than 40%)
R: persian speedwell, herbicidal effect grade (persian speedwell [19]): 5 (Herbicidal rate of 90% or more (almost completely withered))
Herbicidal effect by soil treatment, L: windgrass (windgrass [20]): 4 (Herbicidal rate of 70% or more and less than 90%)
Herbicidal effect by soil treatment, J: blackgrass (blackgrass [21]): 0 (Herbicidal rate of 5% or less (almost no effect))
F: southern crabgrass, herbicidal effect grade (southern crabgrass [22]): 1 (Herbicidal rate of 5% or more and less than 20%)
Herbicidal effect by soil treatment, Q: false cleavers (false cleavers): 3 (Herbicidal rate of 40% or more and less than 70%)
Herbicidal effect by soil treatment, M: velvetleaf (velvetleaf [23]): 0 (Herbicidal rate of 5% or less (almost no effect))
Herbicidal effect by soil treatment, H: barnyard grass (barnyard grass [24]): 0 (Herbicidal rate of 5% or less (almost no effect))
H: barnyard grass, herbicidal effect grade (barnyard grass [25]): 4 (Herbicidal rate of 70% or more and less than 90%)
